According to patent publication US12447156B2, “Treating progressive familial intrahepatic cholestasis (PFIC) with IBAT inhibitors” (ALBIREO AB, priority 2020, dated 2025):

What was measured:
Format in all cases: in vivo, human
[1] = test system: children with PFIC1 or PFIC2; test: PEDFIC 1: quality of life (PedsQL and PedsQL Family Impact Module)
Protocol: Study design and eligibility was as follows. In PEDFIC 1, patients were randomized 1:1:1 to receive oral, once-daily placebo, odevixibat 40 μg/kg/day, or odevixibat 120 μg/kg/day for 24 weeks; patients who completed 24 weeks of treatment could enroll in an open-label extension. Patients between the ages of 6 months and 18 years with a diagnosis of PFIC1 or PFIC2 were eligible for the study if they had elevated serum bile acid levels (defined as ≥100 μmol/L averaged from 2 samples taken prior to randomization, ≥7 days apart) and significant pruritus as reported by caregivers (average score ≥2 on a scale of 0-4 in the 2 weeks prior to randomization using an observer-reported outcome instrument).
A change from baseline to week 24 for the Pediatric QoL Inventory (PedsQL) questionnaire was assessed as an exploratory endpoint. Caregivers of patients ≥2 years old completed the PedsQL questionnaire, which assessed patient functioning in physical, emotional, social, and school domains; the output is a score between 0 and 100, where higher scores indicate better functioning and a higher change from baseline indicates an improvement in QoL, In addition, caregivers completed the PedsQL Family Impact Module, which assesses physical, emotional, social, and cognitive functioning as well as communication, worry, daily activities, and family relationship domains, also on a scale of 0 to 100. Total scores at baseline and at week 24 for all treatment groups as well as mean changes in scores from baseline to week 24 are presented for both odevixibat doses combined vs placebo; these are summarized descriptively.

[2] = test system: patients with PFIC with prior PEBD surgery; test: PEDFIC 1/2 post hoc subgroup: patients with prior partial external biliary diversion (PEBD)
Protocol: (§1) One surgical treatment option for patients with PFIC is partial external biliary diversion (PEBD), which can be used to reduce bile acid levels in patients with medically refractory pruritus. However, PEBD is not successful in all patients. […] This post hoc subgroup analysis evaluated the safety and efficacy of odevixibat in patients enrolled in the PEDFIC studies who had PEBD surgery prior to study entry.
(§2) In the double-blind PEDFIC 1 study, children with PFIC1 or PFIC2 were randomized to placebo or 40 or 120 μg/kg/day odevixibat for 24 weeks. In PEDFIC 2, an ongoing, open-label extension study, patients from PEDFIC 1 or newly enrolled patients with any PFIC subtype receive odevixibat 120 μg/kg/day. In both PEDFIC 1 and PEDFIC 2, eligible patients had elevated sBAs and significant pruritus at screening. Changes over time in sBA levels and observer-reported pruritus (range: 0-4; higher scores indicate worse symptoms), sleep parameters, and quality of life (QoL; assessed with the Pediatric Quality of Life Inventory [PedsQL]) were evaluated in the subgroup of patients from PEDFIC 1 and/or PEDFIC 2 with a medical history of PEBD surgery performed prior to study enrollment.

[3] = test system: patients with PFIC with prior PEBD surgery; test: as above; design: key: Y: sBAs reduced ≥70% or levels ≤70 μmol/L at last assesment; N, no; details: Patient 10 (prior PEBD, PFIC2; PEDFIC 2 only, 120 μg/kg/d; 35 weeks exposure)
Protocol: as §1, §2

[4] = of 10 patients with prior PEBD surgery

CCCCC1(CCCC)CN(c2ccccc2)c2cc(SC)c(OCC(=O)N[C@@H](C(=O)N[C@@H](CC)C(=O)O)c3ccc(O)cc3)cc2S(=O)(=O)N1 [Odevixibat, 1,1-dioxo-3,3-dibutyl-5-phenyl-7-methylthio-8-(N-{(R)-α-[N-((S)-1-carboxypropyl)carbamoyl]-4-hydroxybenzyl}carbamoylmethoxy)-2,3,4,5-tetrahydro-1,2,5-benzothiadiazepine]
PedsQL Family Impact Module Physical functioning, Mean (SE) ([1]; Week 24, All Doses (n = 34)): 59.8 (4.0) | PedsQL Family Impact Module Social functioning, Mean (SE) ([1]; Week 24, All Doses (n = 34)): 63.1 (4.8) | PedsQL Family Impact Module Total score, Mean (SE) ([1]; Week 24, All Doses (n = 34)): 60.6 (3.5) | PedsQL Family Impact Module Worry, Mean (SE) ([1]; Week 24, All Doses (n = 34)): 49.7 (3.9) | PedsQL School functioning, Mean (SE) ([1]; Week 24, All Doses, n 19): 58.5 (4.7) | PedsQL Emotional functioning, Mean (SE) ([1]; Week 24, All Doses, n 24): 56.9 (4.0) | PedsQL Physical functioning, Mean (SE) ([1]; Week 24, All Doses, n 24): 56.5 (4.4) | PedsQL Social functioning, Mean (SE) ([1]; Week 24, All Doses, n 24): 64.4 (5.1) | PedsQL Total score, Mean (SE) ([1]; Week 24, All Doses, n 24): 58.6 (3.8) | Pruritus Responder? ([2]; Patient 1 (prior PEBD, PFIC2; PEDFIC 1 placebo, PEDFIC 2 120 μg/kg/d; 42 weeks exposure)): N (N, no) | Change From Baseline in Pruritus Score ([2]; Patient 1 (prior PEBD, PFIC2; PEDFIC 1 placebo, PEDFIC 2 120 μg/kg/d; 42 weeks exposure), baseline 1.9): 0.1 | Change From Baseline in sBAs ([2]; Patient 1 (prior PEBD, PFIC2; PEDFIC 1 placebo, PEDFIC 2 120 μg/kg/d; 42 weeks exposure), baseline 172): -18 µmol/L | Pruritus Responder? ([2]; Patient 2 (prior PEBD, PFIC1; PEDFIC 1 placebo, PEDFIC 2 120 μg/kg/d; 35 weeks exposure)): N (N, no) | Change From Baseline in Pruritus Score ([2]; Patient 2 (prior PEBD, PFIC1; PEDFIC 1 placebo, PEDFIC 2 120 μg/kg/d; 35 weeks exposure), baseline 3.8): −0.9 | Change From Baseline in sBAs ([2]; Patient 2 (prior PEBD, PFIC1; PEDFIC 1 placebo, PEDFIC 2 120 μg/kg/d; 35 weeks exposure), baseline 225): -69.5 µmol/L | Pruritus Responder? ([2]; Patient 3 (prior PEBD, PFIC1; PEDFIC 1 40 μg/kg/d, PEDFIC 2 120 μg/kg/d; 44 weeks exposure)): Y (≥1-point drop in pruritus score at last assessment) | Change From Baseline in Pruritus Score ([2]; Patient 3 (prior PEBD, PFIC1; PEDFIC 1 40 μg/kg/d, PEDFIC 2 120 μg/kg/d; 44 weeks exposure), baseline 3.0): −2.1 | Change From Baseline in sBAs ([2]; Patient 3 (prior PEBD, PFIC1; PEDFIC 1 40 μg/kg/d, PEDFIC 2 120 μg/kg/d; 44 weeks exposure), baseline 193): 197 µmol/L | Pruritus Responder? ([2]; Patient 4 (prior PEBD, PFIC1; PEDFIC 1 40 μg/kg/d, PEDFIC 2 120 μg/kg/d; 55 weeks exposure)): Y (≥1-point drop in pruritus score at last assessment) | Change From Baseline in Pruritus Score ([2]; Patient 4 (prior PEBD, PFIC1; PEDFIC 1 40 μg/kg/d, PEDFIC 2 120 μg/kg/d; 55 weeks exposure), baseline 3.0): −1.5 | Change From Baseline in sBAs ([2]; Patient 4 (prior PEBD, PFIC1; PEDFIC 1 40 μg/kg/d, PEDFIC 2 120 μg/kg/d; 55 weeks exposure), baseline 163): -53.5 µmol/L | Pruritus Responder? ([2]; Patient 5 (prior PEBD, PFIC2; 120 μg/kg/d in PEDFIC 1 and 2; 53 weeks exposure)): N (N, no) | Change From Baseline in Pruritus Score ([2]; Patient 5 (prior PEBD, PFIC2; 120 μg/kg/d in PEDFIC 1 and 2; 53 weeks exposure), baseline 2.8): 0.3 | Change From Baseline in sBAs ([2]; Patient 5 (prior PEBD, PFIC2; 120 μg/kg/d in PEDFIC 1 and 2; 53 weeks exposure), baseline 156.5): -11.5 µmol/L | Pruritus Responder? ([2]; Patient 6 (prior PEBD, PFIC2; 120 μg/kg/d in PEDFIC 1 and 2; 44 weeks exposure)): N (N, no) | Change From Baseline in Pruritus Score ([2]; Patient 6 (prior PEBD, PFIC2; 120 μg/kg/d in PEDFIC 1 and 2; 44 weeks exposure), baseline 3.0): 0.0 | Change From Baseline in sBAs ([2]; Patient 6 (prior PEBD, PFIC2; 120 μg/kg/d in PEDFIC 1 and 2; 44 weeks exposure), baseline 237): 103 µmol/L | Pruritus Responder? ([2]; Patient 7 (prior PEBD, PFIC2; 120 μg/kg/d in PEDFIC 1 and 2; 54 weeks exposure, discontinued)): N (N, no) | Change From Baseline in Pruritus Score ([2]; Patient 7 (prior PEBD, PFIC2; 120 μg/kg/d in PEDFIC 1 and 2; 54 weeks exposure, discontinued), baseline 2.9): −0.3 | Change From Baseline in sBAs ([2]; Patient 7 (prior PEBD, PFIC2; 120 μg/kg/d in PEDFIC 1 and 2; 54 weeks exposure, discontinued), baseline 208): 178 µmol/L | Pruritus Responder? ([2]; Patient 8 (prior PEBD, PFIC1; 120 μg/kg/d in PEDFIC 1 and 2; 47 weeks exposure)): Y (≥1-point drop in pruritus score at last assessment) | Change From Baseline in Pruritus Score ([2]; Patient 8 (prior PEBD, PFIC1; 120 μg/kg/d in PEDFIC 1 and 2; 47 weeks exposure), baseline 2.0): −2.1 | Change From Baseline in sBAs ([2]; Patient 8 (prior PEBD, PFIC1; 120 μg/kg/d in PEDFIC 1 and 2; 47 weeks exposure), baseline 188.5): 61.5 µmol/L | Pruritus Responder? ([2]; Patient 9 (prior PEBD, PFIC1; PEDFIC 2 only, 120 μg/kg/d; 25 weeks exposure)): N (N, no) | Change From Baseline in Pruritus Score ([2]; Patient 9 (prior PEBD, PFIC1; PEDFIC 2 only, 120 μg/kg/d; 25 weeks exposure), baseline 2.0): −0.5 | Change From Baseline in sBAs ([2]; Patient 9 (prior PEBD, PFIC1; PEDFIC 2 only, 120 μg/kg/d; 25 weeks exposure), baseline 139.5): 8.5 µmol/L | Pruritus Responder? ([2]; Patient 10 (prior PEBD, PFIC2; PEDFIC 2 only, 120 μg/kg/d; 35 weeks exposure)): Y (≥1-point drop in pruritus score at last assessment) | Change From Baseline in Pruritus Score ([2]; Patient 10 (prior PEBD, PFIC2; PEDFIC 2 only, 120 μg/kg/d; 35 weeks exposure), baseline 2.5): −1.5 | Change From Baseline in sBAs ([2]; Patient 10 (prior PEBD, PFIC2; PEDFIC 2 only, 120 μg/kg/d; 35 weeks exposure), baseline 79.5): -70.5 µmol/L | patients who met criteria for pruritus response (≥1-point drop) [2, 4]: 4 patients | patients with reductions in pruritus score [2, 4]: 7 patients | patients with reductions in sBA levels [2, 4]: 5 patients | patients who met criteria for sBA response (reduced by ≥70% or ≤70 μmol/L) ([2]; of 10 patients with prior PEBD surgery, last assessment): 1 patient | patients with improved observer-reported PedsQL total scores ([2]; of the 9 prior-PEBD patients with post-baseline QoL assessments): 6 patients | tolerability ([2]; patients with prior PEBD surgery): generally well tolerated | patients with TEAEs ([2]; prior PEBD subgroup, 9 of 10 patients, all mild to moderate): 90% | sBA Responder? [3]: Y
